Data as given in PMC9499324, “Glycyrrhizic Acid Derivatives Bearing Amino Acid Residues in the Carbohydrate Part as Dengue Virus E Protein Inhibitors: Synthesis and Antiviral Activity” (International Journal of Molecular Sciences, 2022).

What was measured:
DENV2 [1] = assay: DENV2-induced cytopathic effect (CPE) reduction screening in Vero E6 cells; format: cell-based, Dengue virus type 2; conditions: for inhibition at 10 µM: Dengue virus
Description: (§1) In the antiviral screening assay, each tested GL conjugate at 10 μM was used to survey the anti-DENV activity in Vero E6 cells using cytopathic effect (CPE) and infectivity reduction assays as described in our prior report. In CPE and infectivity reduction assays, Vero E6 cells were infected by DENV2 at an MOI of 0.005 and simultaneously treated 10 μM of indicated GL conjugate for 96 h, and then photographed by microscope for examining the levels of DENV2-induced CPE in infected cells treated with or without GL conjugate. Meanwhile, the cells were further performed using immunofluorescence assay (IFA) with anti-DENV NS4B antibodies (GeneTex, Inc., Hsinchu, Taiwan) and anti-rabbit IgG antibodies conjugated with AF555 (ThermoFisher, Waltham, MA, USA) plus DAPI (4′,6-diamidino-2-phenylindole) nuclear staining. Finally, the DENV-2 infectivity was measured according to the ratio of DENV NS4B-positive cells to DAPI-stained cells in the well of mock-treated or treated cells, as described in [45, 59, 60].

DENV2 [2] = assay: DENV2 infectivity inhibition (anti-NS4B immunofluorescence) in Vero E6 cells; format: cell-based, Dengue virus type 2; conditions: for inhibition at 10 µM: Vero C1008, 10 μM compound, DENV2, Vero E6 cells, 96 h, read-out: Inhibition (%) at 10 μM (reduction of NS4B-positive cells); for Selectivity Index (CC50/ IC50): DENV2
Excerpt: as §1, with “In the antiviral screening assay, each tested GL conjugate at 10 μM was used to survey the anti-DENV activity in Vero E6 cells using cytopathic effect (CPE) and infectivity reduction assays as described in our prior report.” left out, “[…],” for “Vero E6 cells were infected by DENV2 at an MOI of 0.005 and simultaneously treated 10 μM of indicated GL conjugate for 96 h,”

[3] = parameters: method as in earlier work; conditions: mammals; cited from earlier work
[4] = MTT cytotoxicity assay in Vero E6 cells; format: cell-based; conditions: African green monkey
Description: (§2) Vero E6 cells and A549 cells (5 × 10^3 cells/well) were treated with the serial dilution of GL conjugates at 0, 0.1, 10, 20, and 50 μM for examining the in vitro cytotoxicity of tested compounds. After 96-h incubation at 37 °C, the cells were incubated with MTT (3-(4,5-Dimethylthiazol-2-yl)-2,5-Diphenyltetrazolium Bromide) solution for another 4 h incubation, mixed with DMSO for 15 min after the removal of media, and then measured the absorbance at 570 nm. The viability (%) of treated cells was quantified according to the reduced ability of MTT. Finally, the concentration for reducing 50% cell viability (the 50% cytotoxic concentration, CC50) was determined by regression analysis of the concentration–response survival curve.

DENV1 = DENV1 infectivity inhibition assay in Vero E6 cells; format: cell-based; conditions: Dengue virus, DENV1, Vero C1008, read-out: IC50 in the DENV1 infectivity inhibition assay
Description: as §1
Supplemental Figure S25. Infectivity inhbition of DENV1 in Vero E6 cells by active GL conjugates. Cells were infected with DENV1 in the presence and absence of Compounds 3, 6, 11, and 21 at the concentrations of 0.1, 1, and 10 μM, respectively. Treated/infected Vero E6 cells were also analyzed using immunofluorescence staining with anti-DENV2 NS4B antibodies.
Residual infectivity was discovered by the ratio of DENV2 NS4B positive cells to total cells stained with DAPI, and relative inhibition activity was determined based on full infectivity with the subtraction of its residual infectivity.
(1 picture or pasted object on this page, not shown here)

DENV2 [5] = assay: Time-of-addition/compound removal assay with DENV2 in Vero E6 cells; format: cell-based, Dengue virus type 2; conditions: time-of-addition/removal, Vero E6 cells
Description: Figure 5 Time-of-addition and removal assay for analyzing antiviral action of compounds 3 (A), 6 (B), 11 (C), and 21 (D) in Vero E6 cells. In the attachment mode, cells were pre-cooled and incubated with fresh-prepared mixtures of active compounds with DENV2 at 4 °C for 1 h. After the removal of the mixtures, the cells were kept at 37 °C for 96 h (a cycle of viral replication) and then were performed by immunofluorescent assay plus DAPI staining. In entry and post-entry modes, cells were infected with DENV2 and treated with the compounds simultaneously (the entry stage) or 1-h post-infection (post-entry stage). After a 1 h incubation period, the virus/compound mixture was removed; the cell monolayer was washed with PBS and cultured for 96 h and then subjected to immunofluorescence staining and DAPI. Finally, the inhibition percentage of DENV2 infectivity was calculated as follows: 1-(percentage of NS4B positivity in treated cells/percentage of NS4B positivity in mock-treated cells). *** p < 0.001 compared with the other two antiviral action modes.
The time-of-addition assays consisted of three modes including attachment treatment/removal, entry-treatment/removal, and post-entry treatment/removal modes. In the attachment-treatment/removal mode, Vero E6 cells monolayer in 6-well plate was placed at 4 °C for 2 h and incubated with the fresh-prepared mixture of DENV-2 (MOI = 0.005) with the active compound at indicated concentrations for 2 h at 4 °C, and then washed with phosphate-buffered saline (PBS). In the entry-treatment/removal mode, Vero E6 cells were simultaneously treated with the active compound and infected DENV-2 (MOI = 0.005) in 6-well plates, incubated for 1 h at 37 °C, and then washed with PBS. In the post-entry treatment/removal mode, the cells were infected with DENV-2 for 1 h at 37 °C, treated with the active compounds at indicated concentrations for 1 h at 37 °C, respectively, and then washed by PBS. After active compound removal (washout), the cells were incubated at 37 °C for 96 h, and then were analyzed by immunofluorescent and DAPI staining assay for determining the residual DENV-2 infectivity, as described above. The inhibitory activity of the transient treatment by active compounds on attachment, entry, and post-entry stages of DENV replication in vitro was determined based on the residual infectivity.

[6] = MTT cytotoxicity assay in A549 cells; format: cell-based; conditions: human
Description: as §2

DENV2 [7] = assay: DENV2 infectivity inhibition (anti-NS4B immunofluorescence) in A549 cells; format: cell-based, Dengue virus type 2
DENV1 and DENV2 = assay: DENV infectivity inhibition, summary over DENV1 and DENV2 in Vero E6 and A549 cells; format: cell-based, Dengue virus; conditions: Dengue virus, range over DENV1 and DENV2, Vero E6 and A549 cells; read-out: IC50 in DENV infectivity (range over assays)
Excerpt: as §1, with “In the antiviral screening assay, each tested GL conjugate at 10 μM was used to survey the anti-DENV activity in Vero E6 cells using cytopathic effect (CPE) and infectivity reduction assays as described in our prior report.” left out, “[…],” for “Vero E6 cells were infected by DENV2 at an MOI of 0.005 and simultaneously treated 10 μM of indicated GL conjugate for 96 h,”

[8] = 10 μM compound, DENV2, Vero E6 cells, 96 h
[9] = Vero C1008, 10 μM compound, DENV2, Vero E6 cells, 96 h, read-out: CPE Reduction at 10 μM

COC(=O)[C@@H](NC(=O)[C@H]1O[C@@H](O[C@H]2[C@H](OC3CC[C@@]4(C)C(CC[C@]5(C)C4C(=O)C=C4C6C[C@@](C)(C(=O)O)CC[C@]6(C)CC[C@]45C)C3(C)C)O[C@H](C(=O)N[C@H](C(=O)OC)C(C)C)[C@@H](O)[C@@H]2O)[C@H](O)[C@@H](O)[C@@H]1O)C(C)C (stereo partly drawn) [Compound 2, 3-O-{2-O-[N-(β-D-Glucopyranosyluronoyl)-L-valinemethyl ester]-N-(β-D-glucopyranosyluronoyl)-L-valinemethyl ester}-(3β, 20β)-11-oxo-30-norolean-12-ene-30-oic Acid]
CPE Reduction at 10 μM (DENV2 [1]; [8]): −

COC(=O)[C@H](CCSC)NC(=O)[C@H]1O[C@@H](O[C@H]2[C@H](OC3CC[C@@]4(C)C(CC[C@]5(C)C4C(=O)C=C4C6C[C@@](C)(C(=O)O)CC[C@]6(C)CC[C@]45C)C3(C)C)O[C@H](C(=O)N[C@@H](CCSC)C(=O)OC)[C@@H](O)[C@@H]2O)[C@H](O)[C@@H](O)[C@@H]1O (stereo partly drawn) [Compound 8, 3-O-{2-O-[N-(β-D-Glucopyranosyluronoyl)-L-methioninemethyl ester]-N-(β-D-glucopyranosyluronoyl)-L-methioninemethyl ester}-(3β, 20β)-11-oxo-30-noroleane-12-ene-30-oic Acid]
inhibition at 10 µM (DENV2 [1]; [9]): 25 to 50%
inhibition at 10 µM (DENV2 [2]; Dengue virus): 51.6%

CCOC(=O)CCNC(=O)[C@H]1O[C@@H](O[C@H]2[C@H](OC3CC[C@@]4(C)C(CC[C@]5(C)C4C(=O)C=C4C6C[C@@](C)(C(=O)O)CC[C@]6(C)CC[C@]45C)C3(C)C)O[C@H](C(=O)NCCC(=O)OCC)[C@@H](O)[C@@H]2O)[C@H](O)[C@@H](O)[C@@H]1O (stereo partly drawn) [Compound 15, 3-O-{2-O-[N-(β-D-Glucopyranosyluronoyl)-β-alanineethyl ester]-N-(β-D-glucopyranosyluronoyl)-β-alanineethyl ester}-(3β, 20β)-11-oxo-30-noroleane-12-ene-30-acid]
inhibition at 10 µM (DENV2 [1]; [9]): 25 to 50%
inhibition at 10 µM (DENV2 [2]; Dengue virus): 53.6%

CC1(C)[C@@H](O[C@H]2O[C@H](C(=O)O)[C@@H](O)[C@H](O)[C@H]2O[C@@H]2O[C@H](C(=O)O)[C@@H](O)[C@H](O)[C@H]2O)CC[C@]2(C)[C@H]3C(=O)C=C4[C@@H]5C[C@@](C)(C(=O)O)CC[C@]5(C)CC[C@@]4(C)[C@]3(C)CC[C@@H]12 [Compound 1, Glycyrrhizic acid]
LD50 [3]: 5000 mg/kg
inhibition at 10 µM (DENV2 [1]; [9]): 50 to 75%
IC50 (DENV2 [2]; Dengue virus, DENV2, Vero C1008, Vero E6 cells, read-out: Inhibition of DENV2 Infectivity (IC50)): 8.1 ± 0.21 µM
inhibition at 10 µM (DENV2 [2]; Dengue virus): 70.5%
Selectivity Index (CC50/ IC50) (DENV2 [2]; Vero E6 cells): >12.3
CC50 at 96 h [4]: > 100 µM

CCOC(=O)[C@@H](Cc1ccccc1)NC(=O)CNC(=O)[C@H]1O[C@@H](O[C@H]2[C@H](OC3CC[C@@]4(C)C(CC[C@]5(C)C4C(=O)C=C4C6C[C@@](C)(C(=O)O)CC[C@]6(C)CC[C@]45C)C3(C)C)O[C@H](C(=O)NCC(=O)N[C@H](Cc3ccccc3)C(=O)OCC)[C@@H](O)[C@@H]2O)[C@H](O)[C@@H](O)[C@@H]1O (stereo partly drawn) [Compound 16, 3-O-{2-O-[N-(β-D-Glucopyranosyluronoyl)-glycyl-L-phenylalanineethyl ester]-N-(β-D-glucopyranosyluronoyl)-glycyl-L-phenylalanineethyl ester}-(3β,20β)-11-oxo-30-noroleane-12-ene-30-acid]
inhibition at 10 µM (DENV2 [1]; [9]): 50 to 75%
inhibition at 10 µM (DENV2 [2]; Dengue virus): 63.8%

COC(=O)[C@@H](Cc1ccc(O)cc1)NC(=O)[C@H]1O[C@@H](O[C@H]2[C@H](OC3CC[C@@]4(C)C(CC[C@]5(C)C4C(=O)C=C4C6C[C@@](C)(C(=O)O)CC[C@]6(C)CC[C@]45C)C3(C)C)O[C@H](C(=O)N[C@H](Cc3ccc(O)cc3)C(=O)OC)[C@@H](O)[C@@H]2O)[C@H](O)[C@@H](O)[C@@H]1O (stereo partly drawn) [Compound 7, 3-O-{2-O-[N-(β-D-Glucopyranosyluronoyl)-D-tyrosinemethyl ester]-N-(β-D-glucopyranosyluronoyl)-D-tyrosinemethyl ester}-(3β, 20β)-11-oxo-30-noroleane-12-ene-30-oic Acid]
inhibition at 10 µM (DENV2 [1]; DENV2, Vero C1008, read-out: CPE inhibition): 25 to 50%
inhibition at 10 µM (DENV2 [1]; [9]): 25 to 50%
inhibition at 10 µM (DENV2 [2]; Dengue virus): 51.7%

COC(=O)[C@H](Cc1ccc(O)cc1)NC(=O)[C@H]1O[C@@H](O[C@H]2[C@H](OC3CC[C@@]4(C)C(CC[C@]5(C)C4C(=O)C=C4C6C[C@@](C)(C(=O)O)CC[C@]6(C)CC[C@]45C)C3(C)C)O[C@H](C(=O)N[C@@H](Cc3ccc(O)cc3)C(=O)OC)[C@@H](O)[C@@H]2O)[C@H](O)[C@@H](O)[C@@H]1O (stereo partly drawn) [Compound 6, 3-O-{2-O-[N-(β-D-glucopyranosyluronoyl)-L-tyrosinemethyl ester]-N-(β-D-glucopyranosyluronoyl)-L-tyrosinemethyl ester}-(3β,20β)-11-oxo-30-noroleane-12-ene-30-oic acid]
IC50 (DENV1): < 0.1 µM
Stage of DENV2 replication affected (attachment, entry, post-entry modes) (DENV2 [5]): predominantly impeded the post-entry stage
inhibition at 10 µM (DENV2 [1]; [9]): 75 to 100%
CC50 at 96 h [6]: > 100 µM
Selectivity Index (CC50/ IC50) (DENV2 [7]): >1000
IC50 (DENV2 [7]; Dengue virus): < 0.1 µM
IC50 (DENV2 [2]; Dengue virus, DENV2, Vero C1008, read-out: Inhibition of DENV2 Infectivity (IC50, μM), Vero E6 cells): 6 µM
inhibition at 10 µM (DENV2 [2]; Dengue virus): 94%
Selectivity Index (CC50/ IC50) (DENV2 [2]; Vero E6 cells): >16.7
IC50 (DENV2 [2]; Vero E6 cells, read-out: Inhibition of DENV2 Infectivity (IC50)): 5.98 ± 0.41 µM
CC50 at 96 h [4]: > 100 µM
IC50 (DENV1 and DENV2): 0.1 to 5.98 µM

CC[C@H](C)[C@H](NC(=O)[C@H]1O[C@@H](O[C@H]2[C@H](OC3CC[C@@]4(C)C(CC[C@]5(C)C4C(=O)C=C4C6C[C@@](C)(C(=O)O)CC[C@]6(C)CC[C@]45C)C3(C)C)O[C@H](C(=O)N[C@H](C(=O)OC)[C@@H](C)CC)[C@@H](O)[C@@H]2O)[C@H](O)[C@@H](O)[C@@H]1O)C(=O)OC (stereo partly drawn) [Compound 4, 3-O-{2-O-[N-(β-D-Glucopyranosyluronoyl)-L-isoleucinemethyl ester]-N-(β-D-glucopyranosyluronoyl)-L-isoleucinemethyl ester}-(3β, 20β)-11-oxo-30-norolean-12-ene-30-oic Acid]
CPE Reduction at 10 μM (DENV2 [1]; [8]): −
